Molecules are shown by their SMILES.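 Method: 48-hour compound exposure of cells in 96-well plates, five concentrations, linear interpolation of endpoints. Abbreviation: GI50, concentration required for 50% inhibition of growth. TGI: total growth inhibition.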

We go through seven compounds from PubChem BioAssay (NCI).

Some test systems named below: HOP-62 NSCLC; SF-268 CNS; HOP-92 NSCLC; OVCAR-5 ovarian; SK-OV-3 ovarian; A498 renal; HL-60(TB) leukemia; SN12C renal; HCT-15 colon; SF-539 CNS.
Holding throughout (assay): DTP human tumour cell line panel, 48 h

Turning to `N=C(N)c1ccc(-c2ccc(-c3ccco3)o2)cc1F`, the GI50 was 2.96 µM in the experiment on HOP-62 NSCLC; 2.9 µM with SF-268 CNS; 0.968 µM in the experiment with HOP-92 NSCLC; 2.7 µM in the experiment on OVCAR-5 ovarian; 3.2 µM in the experiment on SK-OV-3 ovarian; 1.36 µM in the experiment on A498 renal. Besides, the GI50 was 2.19 µM in the experiment on HL-60(TB) leukemia, 2.01 µM in the experiment on SN12C renal, 2.02 µM with HCT-15 colon and 1.6 µM in the experiment with SF-539 CNS. In addition, the TGI in the experiment with HOP-62 NSCLC is 10.4 µM; in the experiment with SF-268 CNS, 10.4 µM; in the experiment on HOP-92 NSCLC it was 2.98 µM; in the experiment on OVCAR-5 ovarian, 10.3 µM; in the experiment with SK-OV-3 ovarian, 11.5 µM; in the experiment on A498 renal it was 4.83 µM. In addition, the TGI amounted to 4.29 µM with HL-60(TB) leukemia, 6.53 µM with SN12C renal, 4.81 µM with HCT-15 colon and 3.25 µM with SF-539 CNS.
For `CCC1=C[C@H]2CN(CCc3c([nH]c4ccccc34)[C@@](C(=O)OC)(c3cc4c(cc3OC)N(C)[C@H]3[C@@](O)(C(=O)OC)[C@H](OC(C)=O)[C@]5(CC)[C@@H]6C[C@@H]6CN6CC[C@]43[C@@H]65)C2)C1`, the GI50 with HOP-62 NSCLC was 0.0249 µM; in the experiment on SF-268 CNS it was 0.124 µM; with HOP-92 NSCLC it was 0.109 µM; with OVCAR-5 ovarian, 0.126 µM; in the experiment with SK-OV-3 ovarian, 0.0358 µM; in the experiment with A498 renal it was 0.035 µM. The GI50 in the experiment with HL-60(TB) leukemia is 0.0265 µM; in the experiment with SN12C renal, 0.0932 µM; with HCT-15 colon, 0.0738 µM; with SF-539 CNS, 0.054 µM. Moreover, the concentration for total growth inhibition (TGI) came to 4.43 µM in the experiment with HOP-62 NSCLC; 4.04 µM with SF-268 CNS; 1.76 µM with HOP-92 NSCLC; 13.1 µM in the experiment on OVCAR-5 ovarian; 12.2 µM with SK-OV-3 ovarian; 0.183 µM in the experiment with A498 renal. In addition, the TGI in the experiment on HL-60(TB) leukemia stood at 0.14 µM; in the experiment with SN12C renal, 4.99 µM; in the experiment on HCT-15 colon it was 3.31 µM; with SF-539 CNS it was 0.179 µM.
For the compound `COc1cccc(-c2cc(NCc3ccc4c(c3)OCO4)nc(N)n2)c1`, the GI50 is 0.362 µM in the experiment with HOP-62 NSCLC; 3.29 µM in the experiment with SF-268 CNS; 4.04 µM in the experiment with HOP-92 NSCLC; 0.488 µM in the experiment on OVCAR-5 ovarian; 0.0526 µM in the experiment on SK-OV-3 ovarian; 0.033 µM in the experiment on A498 renal. The GI50 is 0.0324 µM in the experiment on HL-60(TB) leukemia, 0.103 µM in the experiment with SN12C renal, 0.0533 µM in the experiment on HCT-15 colon and 0.0909 µM in the experiment on SF-539 CNS. In addition, the TGI with HOP-62 NSCLC was 17.4 µM; in the experiment with SF-268 CNS it was 22.9 µM; in the experiment on HOP-92 NSCLC, 20.5 µM; in the experiment on OVCAR-5 ovarian it was 28.8 µM; in the experiment on SK-OV-3 ovarian, 0.583 µM; in the experiment on A498 renal it was 0.763 µM. Besides, the TGI was 0.296 µM in the experiment with HL-60(TB) leukemia, 22 µM in the experiment with SN12C renal, 13.9 µM with HCT-15 colon and 3.22 µM with SF-539 CNS.
In the case of `C(#Cc1ccccc1C#Cc1ccccn1)c1ccc(OCCCCCCOc2ccc(C#Cc3ccccc3C#Cc3ccccn3)cc2)cc1`, the GI50 with HOP-62 NSCLC is 6.51 µM; in the experiment with SF-268 CNS, 2.52 µM; in the experiment with HOP-92 NSCLC, 4.91 µM; with OVCAR-5 ovarian it was 5.93 µM; in the experiment with SK-OV-3 ovarian it was 7.87 µM; with A498 renal, 5.93 µM. In addition, the GI50 was 0.108 µM in the experiment on HL-60(TB) leukemia, 2.35 µM in the experiment with SN12C renal, 1.76 µM in the experiment with HCT-15 colon and 1.76 µM in the experiment on SF-539 CNS. The concentration for total growth inhibition (TGI) came out at 14.6 µM with HOP-62 NSCLC; 10.8 µM with SF-268 CNS; 12 µM in the experiment on HOP-92 NSCLC; 13.8 µM in the experiment with OVCAR-5 ovarian; 20.1 µM in the experiment with SK-OV-3 ovarian; 12.1 µM with A498 renal. For the same compound, the TGI in the experiment with HL-60(TB) leukemia was 1.44 µM; in the experiment on SN12C renal, 11.6 µM; in the experiment on HCT-15 colon, 9.37 µM; in the experiment with SF-539 CNS it was 7.63 µM.
Consider `CCCNNC(=O)c1ccc(CNC(=O)/C=C/c2ccccc2)cc1`, for which the GI50 was 0.11 µM in the experiment with HOP-62 NSCLC; 0.316 µM in the experiment on SF-268 CNS; 0.0821 µM in the experiment on HOP-92 NSCLC; 0.104 µM in the experiment with OVCAR-5 ovarian; 0.134 µM with SK-OV-3 ovarian; 0.123 µM with A498 renal. Moreover, the GI50 is 0.219 µM in the experiment with HL-60(TB) leukemia, 0.313 µM in the experiment on SN12C renal, 0.305 µM in the experiment on HCT-15 colon and 0.191 µM in the experiment on SF-539 CNS. Besides, the TGI with HOP-62 NSCLC is > 100 µM; with HOP-92 NSCLC, 0.609 µM; in the experiment on SK-OV-3 ovarian it was 1.47 µM; in the experiment with A498 renal it was 0.36 µM; with HL-60(TB) leukemia, > 100 µM; with SN12C renal, > 100 µM. For the same compound, the TGI in the experiment with HCT-15 colon is > 39 µM; in the experiment on SF-539 CNS it was > 100 µM.
`COC1(C)Cc2c(c(C)c(O)c3c2C(=O)C=C(Cl)C3=O)O1` (stereo not drawn): the concentration for total growth inhibition (TGI) was > 100 µM in the experiment on HOP-62 NSCLC; > 100 µM in the experiment on SF-268 CNS; 36.4 µM in the experiment on HOP-92 NSCLC; > 100 µM in the experiment with OVCAR-5 ovarian; > 100 µM in the experiment on SK-OV-3 ovarian; > 100 µM with A498 renal. In addition, the total growth inhibition concentration (TGI) in the experiment on HL-60(TB) leukemia is 14.8 µM; in the experiment with SN12C renal, > 96.7 µM; in the experiment with HCT-15 colon, > 71.9 µM; in the experiment on SF-539 CNS, > 100 µM.
Turning to `O=CNc1ccc2c(c1)Cc1cc([N+](=O)[O-])ccc1-2`, the GI50 in the experiment on HOP-62 NSCLC was 8.71 µM; in the experiment with SF-268 CNS, 5.02 µM; in the experiment on HOP-92 NSCLC it was 6.97 µM; in the experiment on OVCAR-5 ovarian it was 4.2 µM; in the experiment on SK-OV-3 ovarian, 4.39 µM; in the experiment with A498 renal it was 2.02 µM. The GI50 in the experiment on HL-60(TB) leukemia was 3.21 µM; with SN12C renal, > 26.2 µM; with HCT-15 colon, 2.86 µM; with SF-539 CNS, 4.14 µM. Besides, the TGI in the experiment on HOP-62 NSCLC is > 100 µM; with SF-268 CNS it was > 100 µM; in the experiment on HOP-92 NSCLC, > 100 µM; with OVCAR-5 ovarian it was > 100 µM; in the experiment with SK-OV-3 ovarian, 27.4 µM; with A498 renal, > 58.1 µM. For the same compound, the TGI in the experiment on HL-60(TB) leukemia, in the experiment with SN12C renal, in the experiment on HCT-15 colon and in the experiment with SF-539 CNS was > 100 µM in each case.

Usually GI50 stands for the concentration at which growth is held to half of that of the control. By TGI is commonly meant the concentration at which net growth stops. Read a low TGI as more potent growth arrest.
